Data: patent US20120053200A1, “BACE 2 INHIBITORS” (priority 2010, published 2012)

Target: T1, BACE2 (Rattus norvegicus, UniProt Q6IE75)
T1 construct: endogenous cellular BACE2 in the Ins1e rat cell line; endogenous in cells; host or cells: INS-TMEM27 (INS1e-derived rat beta-cell line with doxycycline-inducible full-length hTMEM27)
T1 sequence (Q6IE75 63-514): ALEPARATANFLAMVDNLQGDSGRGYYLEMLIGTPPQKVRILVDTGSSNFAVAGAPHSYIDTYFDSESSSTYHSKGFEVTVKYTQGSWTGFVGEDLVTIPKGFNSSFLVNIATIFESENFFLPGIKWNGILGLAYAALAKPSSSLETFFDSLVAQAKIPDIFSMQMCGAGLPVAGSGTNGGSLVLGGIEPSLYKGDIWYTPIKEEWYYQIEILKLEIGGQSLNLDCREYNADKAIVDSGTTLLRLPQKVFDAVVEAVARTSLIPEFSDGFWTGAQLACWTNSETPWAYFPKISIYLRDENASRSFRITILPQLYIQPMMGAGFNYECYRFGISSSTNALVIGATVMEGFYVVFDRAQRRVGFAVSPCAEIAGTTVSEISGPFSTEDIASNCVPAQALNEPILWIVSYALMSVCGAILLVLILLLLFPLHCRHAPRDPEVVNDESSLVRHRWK
Test: Assay for BACE inhibition by measuring cellular TMEM27 cleavage (INS-TMEM27 cells, ELISA of shed TMEM27)
Format: cell-based
Details: inhibition of human TMEM27 cleavage by endogenous cellular BACE2 in INS1e-derived INS-TMEM27 rat cell line; ELISA of shed TMEM27 in supernatant
Summary of the method: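 Rat INS1e-derived cells with doxycycline-inducible full-length human TMEM27, cleaved by endogenous BACE2. After 2 days' culture, inhibitor added; 2 h later, doxycycline to 500 ng/ml final, then 46 h at 37 °C. Shed TMEM27 in medium quantified by sandwich ELISA; IC50 from curve fit.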

IC50 [nM]	Compound
619	O=C(N[C@@H](Cc1ccccc1)[C@H](O)CNCc1cccc(C(F)(F)F)c1)c1cccc(C(=O)N2CCCC2c2cccc(Cl)c2)c1 (stereo partly drawn) [Example 57, N-[(1S,2R)-1-Benzyl-2-hydroxy-3-(3-trifluoromethyl-benzylamino)-propyl]-3-[2-(3-chloro-phenyl)-pyrrolidine-1-carbonyl]-benzamide]
89	Cc1cccc(C2CCCN2C(=O)c2cccc(C(=O)N[C@@H](Cc3ccccc3)[C@H](O)CNCc3cccc(C(F)(F)F)c3)c2)c1 (stereo partly drawn) [Example 58, N-[(1S,2R)-1-Benzyl-2-hydroxy-3-(3-trifluoromethyl-benzylamino)-propyl]-3-(2-m-tolyl-pyrrolidine-1-carbonyl)-benzamide]
33	O=C(N[C@@H](Cc1ccccc1)[C@H](O)CNCc1cccc(C(F)(F)F)c1)c1cccc(C(=O)N2CCCC2c2ccc(F)c(Cl)c2)c1 (stereo partly drawn) [Example 59, N-[(1S,2R)-1-Benzyl-2-hydroxy-3-(3-trifluoromethyl-benzylamino)-propyl]-3-[2-(3-chloro-4-fluoro-phenyl)-pyrrolidine-1-carbonyl]-benzamide]
267	Cc1cc(C2CCCN2C(=O)c2cccc(C(=O)N[C@@H](Cc3ccccc3)[C@H](O)CNCc3cccc(C(F)(F)F)c3)c2)ccc1Cl (stereo partly drawn) [Example 60, N-[(1S,2R)-1-Benzyl-2-hydroxy-3-(3-trifluoromethyl-benzylamino)-propyl]-3-[2-(4-chloro-3-methyl-phenyl)-pyrrolidine-1-carbonyl]-benzamide]
764	CCc1ccc(C2CCCN2C(=O)c2cccc(C(=O)N[C@@H](Cc3ccccc3)[C@H](O)CNCc3cccc(C(F)(F)F)c3)c2)cc1 (stereo partly drawn) [Example 62, N-[(1S,2R)-1-Benzyl-2-hydroxy-3-(3-trifluoromethyl-benzylamino)-propyl]-3-[2-(4-ethyl-phenyl)-pyrrolidine-1-carbonyl]-benzamide]
314	O=C(N[C@@H](Cc1ccccc1)[C@H](O)CNCc1cccc(C(F)(F)F)c1)c1cccc(C(=O)N2CCC[C@@H]2c2ccccc2)c1 [Example 66, N-[(1S,2R)-1-Benzyl-2-hydroxy-3-(3-trifluoromethyl-benzylamino)-propyl]-3-((R)-2-phenyl-pyrrolidine-1-carbonyl)-benzamide]
4	O=C(N[C@@H](Cc1ccccc1)[C@H](O)CNCc1cccc(C(F)(F)F)c1)c1cccc(C(=O)N2CCC[C@H]2c2ccc(F)cc2)c1 [Example 67, N-[(1S,2R)-1-Benzyl-2-hydroxy-3-(3-trifluoromethyl-benzylamino)-propyl]-3-[(S)-2-(4-fluoro-phenyl)-pyrrolidine-1-carbonyl]-benzamide]
2	O=C(N[C@@H](Cc1ccccc1)[C@H](O)CNCc1cccc(C(F)(F)F)c1)c1cccc(C(=O)N2CCCC2c2cccc(F)c2)c1 (stereo partly drawn) [Example 68, N-[(1S,2R)-1-Benzyl-2-hydroxy-3-(3-trifluoromethyl-benzylamino)-propyl]-3-[2-(3-fluoro-phenyl)-pyrrolidine-1-carbonyl]-benzamide]

More lines, now with the values behind:

Compound	IC50 [nM]
CC1CCN(C(=O)c2cccc(C(=O)N[C@@H](Cc3ccccc3)[C@H](O)CNCc3cccc(C(F)(F)F)c3)c2)C1c1ccc(F)cc1 (stereo partly drawn) [Example 63, N-[(1S,2R)-1-Benzyl-2-hydroxy-3-(3-trifluoromethyl-benzylamino)-propyl]-3-[2-(4-fluoro-phenyl)-3-methyl-pyrrolidine-1-carbonyl]-benzamide]	1
CC(=O)C1CC(c2ccc(F)cc2)N(C(=O)c2cccc(C(=O)N[C@@H](Cc3ccccc3)[C@H](O)CNCc3cccc(C(F)(F)F)c3)c2)C1 (stereo partly drawn) [Example 64, 3-[4-Acetyl-2-(4-fluoro-phenyl)-pyrrolidine-1-carbonyl]-N-[(1S,2R)-1-benzyl-2-hydroxy-3-(3-trifluoromethyl-benzylamino)-propyl]-benzamide]	26
O=C(N[C@@H](Cc1ccccc1)[C@H](O)CNCc1cccc(C(F)(F)F)c1)c1cccc(C(=O)N2CCC[C@H]2Cc2ccccc2)c1 [Example 65, N-[(1S,2R)-1-Benzyl-2-hydroxy-3-(3-trifluoromethyl-benzylamino)-propyl]-3-((S)-2-benzyl-pyrrolidine-1-carbonyl)-benzamide]	51
O=C(N[C@@H](Cc1ccccc1)[C@H](O)CNCc1cccc(C(F)(F)F)c1)c1cccc(C(=O)N2CCCC2C2CCCCC2)c1 (stereo partly drawn) [Example 69, N-[(1S,2R)-1-Benzyl-2-hydroxy-3-(3-trifluoromethyl-benzylamino)-propyl]-3-(2-cyclohexyl-pyrrolidine-1-carbonyl)-benzamide]	7
CC(C)CC1CCCN1C(=O)c1cccc(C(=O)N[C@@H](Cc2ccccc2)[C@H](O)CNCc2cccc(C(F)(F)F)c2)c1 (stereo partly drawn) [Example 70, N-[(1S,2R)-1-Benzyl-2-hydroxy-3-(3-trifluoromethyl-benzylamino)-propyl]-3-(2-isobutyl-pyrrolidine-1-carbonyl)-benzamide]	147
O=C(N[C@@H](Cc1ccccc1)[C@H](O)CNCc1cccc(C(F)(F)F)c1)c1cccc(C(=O)N2CCCC2C(=O)c2ccccc2)c1 (stereo partly drawn) [Example 71, 3-(2-Benzoyl-pyrrolidine-1-carbonyl)-N-[(1S,2R)-1-benzyl-2-hydroxy-3-(3-trifluoromethyl-benzylamino)-propyl]-benzamide]	484
O=C(N[C@@H](Cc1ccccc1)[C@H](O)CNCc1cccc(C(F)(F)F)c1)c1cccc(C(=O)N2CCCC2C2CCCC2)c1 (stereo partly drawn) [Example 72, N-[(1S,2R)-1-Benzyl-2-hydroxy-3-(3-trifluoromethyl-benzylamino)-propyl]-3-(2-cyclopentyl-pyrrolidine-1-carbonyl)-benzamide]	66
CC(C)(C)C1CCCN1C(=O)c1cccc(C(=O)N[C@@H](Cc2ccccc2)[C@H](O)CNCc2cccc(C(F)(F)F)c2)c1 (stereo partly drawn) [Example 73, N-[(1S,2R)-1-Benzyl-2-hydroxy-3-(3-trifluoromethyl-benzylamino)-propyl]-3-(2-tert-butyl-pyrrolidine-1-carbonyl)-benzamide]	56
Cc1csc(CN(C)C(=O)c2cc(C(=O)N[C@@H](Cc3ccccc3)[C@H](O)CNCc3cncc(C(C)(C)F)c3)cc(N(C)S(C)(=O)=O)c2)n1 [Example 74, N-((1S,2R)-1-Benzyl-3-{[5-(1-fluoro-1-methyl-ethyl)-pyridin-3-ylmethyl]-amino}-2-hydroxy-propyl)-5-(methanesulfonyl-methyl-amino)-N′-methyl-N′-(4-methyl-thiazol-2-ylmethyl)-isophthalamide]	255
N-[(1S,2R)-1-Benzyl-2-hydroxy-3-(3-trifluoromethyl-benzylamino)-propyl]-3-(methanesulfonyl-methyl-amino)-5-(2-phenyl-pyrrolidine-1-carbonyl)-benzamide [Example 50]	3
